Source: US8202885B2, “Bridged six-membered ring compounds” (Actelion Pharmaceuticals Ltd., priority 2007, dated 2012)

Each molecule was assayed on human Cav3.1 Cav3.2 or Cav3.3 channel (assay: In vitro assay T channel (FLIPR calcium fluorescence)). Settings: HEK293 cells expressing human Cav3.1, Cav3.2 or Cav3.3; 10 mM Ca2+-induced fluo-4 fluorescence; determined up to 10 μM; read-out: T channel antagonistic activity IC50.
Format: cell-based
Description: The T channel antagonistic activity (IC50 values) of the compounds of formula (I) is determined in accordance with the following experimental method and data are shown in Table 1.
Human embryonic kidney (HEK293) cells expressing the human Cav3.1 Cav3.2 or Cav3.3 channel, respectively, are grown in culture medium (DMEM containing 10% heat-inactivated fetal calf serum (FCS), 100 U/ml penicillin, 100 μg/ml streptomycin and 1 mg/ml G418). The cells are seeded at 20.000 cells/well into 384-well black clear bottom sterile plates (poly-L-lysine-coated, Becton Dickinson). The seeded plates are incubated overnight at 37° C. in 5% CO2. The Ca^2+ solution is prepared as 100 mM stock solution in 100 mM tetraethylammoniumchloride (TEA-chloride), 50 mM HEPES, 2.5 mM CaCl2, 5 mM KCl, 1 mM MgCl2, adjusted to pH 7.2 with TEA-hydroxide, for use in the assay at a final concentration of 10 mM. Antagonists are prepared as 10 mM stock solutions in DMSO, then diluted in 384 w plates first in DMSO, then in 100 mM TEA-chloride, 50 mM HEPES, 2.5 mM CaCl2, 5 mM KCl, 1 mM MgCl2, adjusted to pH 7.2 with TEA-hydroxide, to obtain 9× stocks. On the day of the assay, 25 μl of staining buffer (HBSS containing 20 mM HEPES, 0.375 g/l NaHCO3 and 3 μM of the fluorescent calcium indicator fluo-4 AM (1 mM stock solution in DMSO, containing 10% pluronic) is added to each well of the seeded plate. The 384-well cell-plates are incubated for 60 min at 37° C. in 5% CO2 followed by washing with 2×50 μl per well using HBSS containing 0.1% BSA, 20 mM HEPES, 0.375 g/l NaHCO3, leaving 50 […] of this buffer for equilibration at room temperature (30-60 min). Within the Fluorescent Imaging Plate Reader (FLIPR, Molecular Devices), antagonists are added to the plate in a volume of 6.25 μl/well, incubated for 3 min, and finally 6.25 […] of Ca^2+ solution is added. Fluorescence is measured for each well at 2 second intervals for 8 minutes, and the area under the curve of each fluorescence peak is compared to the area of the fluorescence peak induced by 10 mM Ca^2+ with vehicle in place of antagonist. For each antagonist, the IC50 value (the concentration (in nM) of compound needed to inhibit 50% of the Ca^2+-induced fluorescence response) up to 10 μM is determined.

| IC50 [nM] | SMILES |
| --- | --- |
| > 10000 | COc1cccc2[nH]c(CCCN(C)CC[C@]3(O)C[C@H]4CC[C@@H]3C=C4c3ccccc3)nc12 (relative stereo) [Example 26, rac-(1R*,2R*,4R*)-2-(2-{[3-(4-Methoxy-1H-benzoimidazol-2-yl)-propyl]-methyl-amino}-ethyl)-5-phenyl-bicyclo[2.2.2]oct-5-en-2-ol] |
| 2090 | COc1cccc2[nH]c(CCCN(C)CC[C@]3(OC(=O)C(C)C)C[C@H]4CC[C@@H]3C=C4c3ccccc3)nc12 (relative stereo) [Example 26A, rac-Isobutyric acid (1R*,2R*,4R*)-2-(2-{[3-(4-methoxy-1H-benzoimidazol-2-yl)-propyl]-methyl-amino}-ethyl)-5-phenyl-bicyclo[2.2.2]oct-5-en-2-yl ester] |
| > 10000 | COc1cccc2[nH]c(CCCN(C)CC[C@]3(OC(=O)C4CCC4)C[C@H]4CC[C@@H]3C=C4c3ccccc3)nc12 (relative stereo) [Example 26B, rac-Cyclobutanecarboxylic acid (1R*,2R*,4R*)-2-(2-{[3-(4-methoxy-1H-benzoimidazol-2-yl)-propyl]-methyl-amino}-ethyl)-5-phenyl-bicyclo[2.2.2]oct-5-en-2-yl ester] |
| 1050 | COc1cccc2[nH]c(CCCN(C)CC[C@]3(OC(=O)C(C)(C)C)C[C@H]4CC[C@@H]3C=C4c3ccccc3)nc12 (relative stereo) [Example 26D, rac-2,2-Dimethyl propionic acid (1R*,2R*,4R*)-2-(2-{[3-(4-methoxy-1H-benzoimidazol-2-yl)-propyl]-methyl-amino}-ethyl)-5-phenyl-bicyclo[2.2.2]oct-5-en-2-yl ester] |
| 1110 | COc1cccc2[nH]c(CCCN(C)CC[C@]3(OC(=O)NC(C)C)C[C@H]4CC[C@@H]3C=C4c3ccccc3)nc12 (relative stereo) [Example 26E, rac-Isopropyl-carbamic acid (1R*,2R*,4R*)-2-(2-{[3-(4-methoxy-1H-benzoimidazol-2-yl)-propyl]-methyl-amino}-ethyl)-5-phenyl-bicyclo[2.2.2]oct-5-en-2-yl ester] |
| 951 | COc1cccc2[nH]c(CCCN(C)CC[C@]3(OC(=O)C(C)(C)OC)C[C@H]4CC[C@@H]3C=C4c3ccccc3)nc12 (relative stereo) [Example 26F, rac-2-Methoxy-2-methyl-propionic acid (1R*,2R*,4R*)-2-(2-{[3-(4-methoxy-1H-benzoimidazol-2-yl)-propyl]-methyl-amino}-ethyl)-5-phenyl-bicyclo[2.2.2]oct-5-en-2-yl ester] |
| 935 | COc1cccc2[nH]c(CCCN(C)CC[C@]3(OC(=O)OC(C)C)C[C@H]4CC[C@@H]3C=C4c3ccccc3)nc12 (relative stereo) [Example 26G, rac-Carbonic acid isopropyl ester (1R*,2R*,4R*)-2-(2-{[3-(4-methoxy-1H-benzoimidazol-2-yl)-propyl]-methyl-amino}-ethyl)-5-phenyl-bicyclo[2.2.2]oct-5-en-2-yl ester] |
| > 10000 | CN(CCCc1nc2cc(Cl)c(Cl)cc2[nH]1)CC[C@]1(O)C[C@H]2CC[C@@H]1C=C2c1ccccc1 (relative stereo) [Example 27, rac-(1R*,2R*,4R*)-2-(2-{[3-(5,6-Dichloro-1H-benzoimidazol-2-yl)-propyl]-methyl-amino}-ethyl)-5-phenyl-bicyclo[2.2.2]oct-5-en-2-ol] |
| 6740 | CC(C)C(=O)O[C@@]1(CCN(C)CCCc2nc3cc(Cl)c(Cl)cc3[nH]2)C[C@H]2CC[C@@H]1C=C2c1ccccc1 (relative stereo) [Example 27A, rac-Isobutyric acid (1R*,2R*,4R*)-2-(2-{[3-(5,6-dichloro-1H-benzoimidazol-2-yl)-propyl]-methyl-amino}-ethyl)-5-phenyl-bicyclo[2.2.2]oct-5-en-2-yl ester] |
| 4730 | CN(CCCc1nc2cc(Cl)c(Cl)cc2[nH]1)CC[C@]1(OC(=O)C2CC2)C[C@H]2CC[C@@H]1C=C2c1ccccc1 (relative stereo) [Example 27B, rac-Cyclopropanecarboxylic acid (1R*,2R*,4R*)-2-(2-{[3-(5,6-dichloro-1H-benzoimidazol-2-yl)-propyl]-methyl-amino}-ethyl)-5-phenyl-bicyclo[2.2.2]oct-5-en-2-yl ester] |
| 2530 | COc1cc2nc(CCCN(C)CC[C@]3(O)C[C@H]4CC[C@@H]3C=C4c3ccccc3)[nH]c2cc1OC (relative stereo) [Example 28, rac-(1R*,2R*,4R*)-2-(2-{[3-(5,6-Dimethoxy-1H-benzoimidazol-2-yl)-propyl]-methyl-amino}-ethyl)-5-phenyl-bicyclo[2.2.2]oct-5-en-2-ol] |
| 3460 | COc1cc2nc(CCCN(C)CC[C@]3(OC(=O)C(C)C)C[C@H]4CC[C@@H]3C=C4c3ccccc3)[nH]c2cc1OC (relative stereo) [Example 28A, rac-Isobutyric acid (1R*,2R*,4R*)-2-(2-{[3-(5,6-dimethoxy-1H-benzoimidazol-2-yl)-propyl]-methyl-amino}-ethyl)-5-phenyl-bicyclo[2.2.2]oct-5-en-2-yl ester] |
| > 10000 | COc1ccc2[nH]c(CCCN(C)CC[C@]3(O)C[C@H]4CC[C@@H]3C=C4c3ccccc3)nc2c1 (relative stereo) [Example 29, rac-(1R*,2R*,4R*)-2-(2-{[3-(5-Methoxy-1H-benzoimidazol-2-yl)-propyl]-methyl-amino}-ethyl)-5-phenyl-bicyclo[2.2.2]oct-5-en-2-ol] |
| 4510 | COc1ccc2[nH]c(CCCN(C)CC[C@]3(OC(=O)C(C)C)C[C@H]4CC[C@@H]3C=C4c3ccccc3)nc2c1 (relative stereo) [Example 29A, rac-Isobutyric acid (1R*,2R*,4R*)-2-(2-{[3-(5-methoxy-1H-benzoimidazol-2-yl)-propyl]-methyl-amino}-ethyl)-5-phenyl-bicyclo[2.2.2]oct-5-en-2-yl ester] |
| 1780 | COc1ccc(C)c2nc(CCCN(C)CC[C@]3(O)C[C@H]4CC[C@@H]3C=C4c3ccccc3)[nH]c12 (relative stereo) [Example 30, rac-(1R*,2R*,4R*)-2-(2-{[3-(7-Methoxy-4-methyl-1H-benzoimidazol-2-yl)-propyl]-methyl-amino}-ethyl)-5-phenyl-bicyclo[2.2.2]oct-5-en-2-ol] |
| 1250 | COc1ccc(C)c2nc(CCCN(C)CC[C@]3(OC(=O)C(C)C)C[C@H]4CC[C@@H]3C=C4c3ccccc3)[nH]c12 (relative stereo) [Example 30A, rac-Isobutyric acid (1R*,2R*,4R*)-2-(2-{[3-(7-methoxy-4-methyl-1H-benzoimidazol-2-yl)-propyl]-methyl-amino}-ethyl)-5-phenyl-bicyclo[2.2.2]oct-5-en-2-yl ester] |
| 2580 | CCOc1cccc2nc(CCCN(C)CC[C@]3(O)C[C@H]4CC[C@@H]3C=C4c3ccccc3)[nH]c12 (relative stereo) [Example 31, rac-(1R*,2R*,4R*)-2-(2-{[3-(7-Ethoxy-1H-benzoimidazol-2-yl)-propyl]-methyl-amino}-ethyl)-5-phenyl-bicyclo[2.2.2]oct-5-en-2-ol] |
| 2600 | CCOc1cccc2nc(CCCN(C)CC[C@]3(OC(=O)C(C)C)C[C@H]4CC[C@@H]3C=C4c3ccccc3)[nH]c12 (relative stereo) [Example 31A, rac-Isobutyric acid (1R*,2R*,4R*)-2-(2-{[3-(7-ethoxy-1H-benzoimidazol-2-yl)-propyl]-methyl-amino}-ethyl)-5-phenyl-bicyclo[2.2.2]oct-5-en-2-yl ester] |
| 1480 | COc1cccc2nc(CCN(C)CC[C@]3(O)C[C@H]4CC[C@@H]3C=C4c3ccccc3)[nH]c12 (relative stereo) [Example 32, rac-(1R*,2R*,4R*)-2-(2-{[2-(7-Methoxy-1H-benzoimidazol-2-yl)-ethyl]-methyl-amino}-ethyl)-5-phenyl-bicyclo[2.2.2]oct-5-en-2-ol] |
| 3390 | COc1cccc2nc(CCN(C)CC[C@]3(OC(=O)C(C)C)C[C@H]4CC[C@@H]3C=C4c3ccccc3)[nH]c12 (relative stereo) [Example 32A, rac-Isobutyric acid (1R*,2R*,4R*)-2-(2-{[2-(7-methoxy-1H-benzoimidazol-2-yl)-ethyl]-methyl-amino}-ethyl)-5-phenyl-bicyclo[2.2.2]oct-5-en-2-yl ester] |
